The text below walks through data of patent US8431563B2 (priority 2010, dated 2013).

In assay [1] the target is T1, GKRP (Glucokinase Regulatory Protein) with human His-hepatic GK (Homo sapiens, UniProt Q14397).
T1 sequence (Q14397 1-625): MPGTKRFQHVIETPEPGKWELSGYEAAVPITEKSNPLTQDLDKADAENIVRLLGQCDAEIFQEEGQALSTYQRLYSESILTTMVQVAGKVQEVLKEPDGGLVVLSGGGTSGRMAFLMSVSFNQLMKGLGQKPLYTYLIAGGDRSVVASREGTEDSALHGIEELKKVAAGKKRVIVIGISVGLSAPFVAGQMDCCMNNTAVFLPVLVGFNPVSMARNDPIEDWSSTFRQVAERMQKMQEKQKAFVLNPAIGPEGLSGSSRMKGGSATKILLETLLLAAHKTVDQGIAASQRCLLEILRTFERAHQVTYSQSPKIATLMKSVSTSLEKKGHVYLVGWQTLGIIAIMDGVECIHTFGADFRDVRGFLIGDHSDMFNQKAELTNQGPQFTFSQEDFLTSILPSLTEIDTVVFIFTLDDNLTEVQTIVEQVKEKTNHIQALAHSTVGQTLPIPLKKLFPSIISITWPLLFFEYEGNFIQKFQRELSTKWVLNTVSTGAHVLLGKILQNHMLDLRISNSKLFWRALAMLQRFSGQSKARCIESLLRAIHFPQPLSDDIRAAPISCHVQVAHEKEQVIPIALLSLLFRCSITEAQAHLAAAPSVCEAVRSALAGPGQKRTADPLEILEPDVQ
Nature of the assay: biochemical. Particulars: 13C-glucose-6-phosphate formation; 280 nM GKRP (10×), 30 nM GK (5×); read-out: GK-GKRP EC50 (LC MS/MS-2). The procedure, abridged:
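Product formation, 13C-glucose-6-phosphate from 13C-glucose, was measured directly by LC MS/MS after acetonitrile quench. The GK reaction ran 30 min at room temperature in Tris pH 7.5 buffer with 4 mM MgCl2 and 6% DMSO. The 5× enzyme stock was 30 nM His-tagged human hepatic glucokinase.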

In assay [2] the target is T2, interaction between glucokinase (GK) and glucokinase regulatory protein (GKRP) (Homo sapiens, UniProt Q14397).
T2 sequence (Q14397 1-625): T1 sequence (Q14397 1-625)
Nature of the assay: biochemical. The format is binding. The following applies: avi-tagged GKRP, GK-fluorescein, AlphaScreen beads; read-out: GK-GKRP IC50 (Binding). The gist of the method: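 Measures direct GK–GKRP binding in 20 mM Tris pH 7.5 containing 1 μM sorbitol-6-phosphate, 0.05% BSA and 1 mM DTT. Compound and avi-tagged GKRP sit 20 min at room temperature before GK-fluorescein addition (6 nM in the added buffer); read after 2 h dark incubation at room temperature.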
For orientation: Bead proximity is the source of the signal in Alpha formats.

Structures are written as SMILES.

The IC50 is the midpoint of a concentration-inhibition curve.

For the compound `CC1CNC(=O)CN1C[C@H]1CN(S(=O)(=O)c2cccs2)CCN1c1ccc(C(C)(O)C(F)(F)F)cc1` (mixture of isomers) [Example 183, 5-methyl-4-(((2S)-4-(2-thiophenylsulfonyl)-1-(4-(2,2,2-trifluoro-1-hydroxy-1-methylethyl)phenyl)-2-piperazinyl)methyl)-2-piperazinone], in assay [1], the EC50 came to 287 nM. Moreover, the IC50 in assay [2] worked out at 171 nM.

With `CC(O)(c1ccc(N2CCN(S(=O)(=O)c3cccs3)C[C@@H]2CS(=O)(=O)c2cccc(F)c2)cc1)C(F)(F)F` (mixture of isomers) [Example 189 Peak#1, 1,1,1-trifluoro-2-(4-((2R)-2-(((3-fluorophenyl)sulfonyl)methyl)-4-(2-thiophenylsulfonyl)-1-piperazinyl)phenyl)-2-propanol], the EC50 in assay [1] amounted to 235 nM. The IC50 in assay [2] turned out to be 374 nM.

Turning to `C[C@H]1COCCN1C[C@H]1CN(S(=O)(=O)c2ccc(N)nc2)CCN1c1ncc(C(O)(C(F)(F)F)C(F)(F)F)cn1` [Example 128, 2-(2-((2S)-4-((6-amino-3-pyridinyl)sulfonyl)-2-(((3S)-3-methyl-4-morpholinyl)methyl)-1-piperazinyl)-5-pyrimidinyl)-1,1,1,3,3,3-hexafluoro-2-propanol], the EC50 in assay [1] is 34 nM. Besides, in assay [2], the IC50 was 27 nM.

`CC(O)(c1ccc(N2CCN(S(=O)(=O)c3cccs3)C[C@@H]2CN2[C@@H]3COC[C@H]2CC(=O)C3)cc1)C(F)(F)F` (single isomer, unassigned) [Example 106 Peak#2]: the EC50 in assay [1] was 142 nM. The IC50 in assay [2] worked out at 61 nM.

Turning to `C[C@H]1COCCN1C[C@H]1CN(S(=O)(=O)c2ccc(N)nc2)CCN1c1ncc(C(C)(O)C(F)(F)F)cn1` (mixture of isomers) [Example 129, 2-(2-((2S)-4-((6-amino-3-pyridinyl)sulfonyl)-2-(((3S)-3-methyl-4-morpholinyl)methyl)-1-piperazinyl)-5-pyrimidinyl)-1,1,1-trifluoro-2-propanol], the EC50 in assay [1] is 99 nM. The IC50 in assay [2] worked out at 36 nM.

Regarding `CC(C)C1C(=O)NCCN1C[C@H]1CN(S(=O)(=O)c2cccs2)CCN1c1ncc(C(O)(C(F)(F)F)C(F)(F)F)cn1` (mixture of isomers) [Example 185, 3-(1-methylethyl)-4-(((2S)-4-(2-thiophenylsulfonyl)-1-(5-(2,2,2-trifluoro-1-hydroxy-1-(trifluoromethyl)ethyl)-2-pyrimidinyl)-2-piperazinyl)methyl)-2-piperazinone], the EC50 in assay [1] was found to be 16 nM. For the same compound, the IC50 in assay [2] was 1 nM.

Consider `CC(O)(c1ccc(N2CCN(S(=O)(=O)c3cccs3)C[C@@H]2CN(C2CCC2)S(C)(=O)=O)cc1)C(F)(F)F` (stereo partly drawn) [Example 212, N-cyclobutyl-N-(((2R)-4-(2-thiophenylsulfonyl)-1-(4-(2,2,2-trifluoro-1-hydroxy-1-methylethyl)phenyl)-2-piperazinyl)methyl) methanesulfonamide], for which, in assay [1], the EC50 was 92 nM. In addition, in assay [2], the IC50 was found to be 68 nM.

In the case of `C[C@H]1CN(S(=O)(=O)c2nccs2)CCN1c1ncc(C(O)(C(F)(F)F)C(F)(F)F)cn1` [Example 146, 1,1,1,3,3,3-hexafluoro-2-(2-((2S)-2-methyl-4-(1,3-thiazol-2-ylsulfonyl)-1-piperazinyl)-5-pyrimidinyl)-2-propanol], in assay [1], the EC50 is 867 nM. In addition, in assay [2], the 50% inhibitory concentration (IC50) is 630 nM.

For the compound `O=S(=O)(c1cccs1)N1CCN(c2ccc(C(O)(C(F)(F)F)C(F)(F)F)cc2)C(Cc2ccccc2O)C1` (racemic) [Example 178, 2-((1-(4-(1,1,1,3,3,3-hexafluoro-2-hydroxypropan-2-yl)phenyl)-4-(thiophen-2-ylsulfonyl)piperazin-2-yl)methyl)phenol], the EC50 in assay [1] turned out to be 84 nM. In assay [2], the half-inhibitory concentration (IC50) was found to be 170 nM.

`CC(O)(c1ccc(N2CCN(S(=O)(=O)c3cccs3)C[C@@H]2CN2[C@@H]3COC[C@H]2CC(O)C3)cc1)C(F)(F)F` (stereo partly drawn) [Example 107, 9-(((2S)-4-(2-thiophenylsulfonyl)-1-(4-(2,2,2-trifluoro-1-hydroxy-1-methylethyl)phenyl)-2-piperazinyl)methyl)-3-oxa-9-azabicyclo[3.3.1]nonan-7-ol (endo)]: the EC50 in assay [1] amounted to 16 nM. Besides, in assay [2], the IC50 is 5 nM.

`CC(C)CN(C[C@H]1CN(S(=O)(=O)c2cccnc2N)CCN1c1ncc(C(O)(C(F)(F)F)C(F)(F)F)cn1)S(C)(=O)=O` [Example 230 (2-amino-3-pyridinyl), N-(((2S)-4-((2-amino-3-pyridinyl)sulfonyl)-1-(5-(2,2,2-trifluoro-1-hydroxy-1-(trifluoromethyl)ethyl)-2-pyrimidinyl)-2-piperazinyl)methyl)-N-(2-methylpropyl)methanesulfonamide]: the EC50 in assay [1] is 95 nM. In addition, the IC50 in assay [2] was 64 nM.

For the compound `CC1(C)C(=O)NCCN1C[C@H]1CN(S(=O)(=O)c2cccs2)CCN1c1ncc(C(O)(C(F)(F)F)C(F)(F)F)cn1` [Example 226, 3,3-dimethyl-4-(((2S)-4-(2-thiophenylsulfonyl)-1-(5-(2,2,2-trifluoro-1-hydroxy-1-(trifluoromethyl)ethyl)-2-pyrimidinyl)-2-piperazinyl)methyl)-2-piperazinone], the EC50 in assay [1] was determined as 14 nM. Besides, the half-inhibitory concentration (IC50) in assay [2] was found to be 6 nM.

As to `CC1(C)C(=O)NC(=O)N1C[C@H]1CN(S(=O)(=O)c2cccs2)CCN1c1ccc(C(C)(O)C(F)(F)F)cc1` (mixture of isomers) [Example 228, 5,5-dimethyl-1-(((2S)-4-(2-thiophenylsulfonyl)-1-(4-(2,2,2-trifluoro-1-hydroxy-1-methylethyl)phenyl)-2-piperazinyl)methyl)-2,4-imidazolidinedione], the EC50 in assay [1] stood at 312 nM. The IC50 in assay [2] stood at 151 nM.

With `CC(O)(c1ccc(N2CCN(S(=O)(=O)c3cccs3)C[C@@H]2CS(=O)(=O)c2ccc(F)cc2)cc1)C(F)(F)F` (mixture of isomers) [Example 191 Peak#1, 1,1,1-trifluoro-2-(4-((2R)-2-(((4-fluorophenyl)sulfonyl)methyl)-4-(2-thiophenylsulfonyl)-1-piperazinyl)phenyl)-2-propanol], the EC50 in assay [1] worked out at 166 nM. Moreover, the IC50 in assay [2] stood at 177 nM.

On to `C[C@H]1COCCN1C[C@H]1CN(S(=O)(=O)c2ccc(N)nc2)CCN1c1ccc(C(C)(O)C(F)(F)F)cc1` (mixture of isomers) [Example 125, 2-(4-((2S)-4-((6-amino-3-pyridinyl)sulfonyl)-2-(((3S)-3-methyl-4-morpholinyl)methyl)-1-piperazinyl)phenyl)-1,1,1-trifluoro-2-propanol], for which the EC50 in assay [1] was found to be 20 nM. Further, the IC50 in assay [2] was determined as 3 nM.

Regarding `CS(=O)(=O)N(C[C@H]1CN(S(=O)(=O)c2ccc(N)s2)CCN1c1ncc(C(O)(C(F)(F)F)C(F)(F)F)cn1)c1ccccc1` [Example 233, N-(((2R)-4-((5-amino-2-thiophenyl)sulfonyl)-1-(5-(2,2,2-trifluoro-1-hydroxy-1-(trifluoromethyl)ethyl)-2-pyrimidinyl)-2-piperazinyl)methyl)-N-phenylmethanesulfonamide], in assay [1], the EC50 turned out to be 8 nM. Also, the half-inhibitory concentration (IC50) in assay [2] was < 1 nM.

On to `CC(O)(c1ccc(N2CCN(S(=O)(=O)c3cccs3)C[C@@H]2CN2C3COCC2C(O)C3)cc1)C(F)(F)F` (single isomer, unassigned) [Example 78 Peak #4], for which the EC50 in assay [1] worked out at 46 nM. Besides, the IC50 in assay [2] stood at 40 nM.
